Cn1ncnc1COc1nc2c(-c3ccccc3)nncc2cc1-c1ccccc1 [Example 1, 3,8-Diphenyl-2-(2-methyl-2H-[1,2,4]triazol-3-ylmethoxy)pyrido[2,3-d]pyridazine]
melting point: 222 to 223 °C
